Source: patent publication US8952024B2, “Herbicidal pyrimidone derivatives” (E I du Pont de Nemours and Company, priority 2009, dated 2015)

Columns and labels:
Assay in all cases: Test D pre-/postemergence plant response
Format in all cases: in vivo
Settings in all cases: Postemergence
[1] = tested on: guineagrass (Panicum maximum)
In short: (§1)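 Scores (0 no effect, 100 complete control) reflect visual assessment against untreated plants after 14 to 21 days. Treatments were pre- and postemergence sprays in solvent with surfactant.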

[2] = tested on: dallisgrass (Paspalum dilatatum)
In short: as §1

[3] = tested on: sowthistle (common sowthistle, Sonchus oleraceous)
In short: as §1

[4] = tested on: black mustard (Brassica nigra)
In short: as §1

[5] = tested on: nutsedge (purple nutsedge, Cyperus rotundus)
In short: as §1

[6] = tested on: purslane (common purslane, Portulaca oleracea)
In short: as §1

[7] = tested on: signalgrass (broadleaf signalgrass, Brachiaria platyphylla)
In short: as §1

[8] = tested on: chickweed (common chickweed, Stellaria media)
In short: as §1

[9] = tested on: large crabgrass (Digitaria sanguinalis)
In short: as §1

[10] = tested on: spanishneedles (Bidens bipinnata)
In short: as §1

[11] = tested on: Surinam grass (Brachiaria decumbens)
In short: as §1

[12] = tested on: kochia (Kochia scoparia)
In short: as §1

[13] = tested on: Russian thistle (Salsola kali)
In short: as §1

[14] = tested on: barnyardgrass (Echinochloa crus-galli)
In short: as §1

[15] = tested on: itchgrass (Rottboellia cochinchinensis)
In short: as §1

[16] = tested on: morningglory (pitted morningglory, Ipomoea lacunosa)
In short: as §1

[17] = 125 g ai/ha, scale 0 to 100 (0 no effect, 100 complete control)
[18] = 250 g ai/ha, scale 0 to 100 (0 no effect, 100 complete control)
[19] = 62 g ai/ha, scale 0 to 100 (0 no effect, 100 complete control)

COCCCn1c(-c2cc(F)cc(F)c2)ncc(C(=O)C2=C(O)C3CCC(C3)C2=O)c1=O (stereo not shown) [Compound 244]
Plant response rating, Guineagrass ([1]; 31 g ai/ha, scale 0 to 100): 70 | Plant response rating, Guineagrass [1, 17]: 75 | Plant response rating, Guineagrass [1, 18]: 75 | Plant response rating, Guineagrass [1, 19]: 75 | Plant response rating, Dallisgrass ([2]; 31 g ai/ha, scale 0 to 100): 40 | Plant response rating, Dallisgrass [2, 17]: 75 | Plant response rating, Dallisgrass [2, 18]: 80 | Plant response rating, Dallisgrass [2, 19]: 75 | Plant response rating, Sowthistle ([3]; 31 g ai/ha, scale 0 to 100): 75 | Plant response rating, Sowthistle [3, 17]: 100 | Plant response rating, Sowthistle [3, 18]: 100 | Plant response rating, Sowthistle [3, 19]: 95 | Plant response rating, Black Mustard ([4]; 31 g ai/ha, scale 0 to 100): 50 | Plant response rating, Black Mustard [4, 17]: 95 | Plant response rating, Black Mustard [4, 18]: 98 | Plant response rating, Black Mustard [4, 19]: 75 | Plant response rating, Nutsedge, Purple ([5]; 31 g ai/ha, scale 0 to 100): 0 | Plant response rating, Nutsedge, Purple [5, 17]: 10 | Plant response rating, Nutsedge, Purple [5, 18]: 35 | Plant response rating, Nutsedge, Purple [5, 19]: 0 | Plant response rating, Purslane ([6]; 31 g ai/ha, scale 0 to 100): 25 | Plant response rating, Purslane [6, 17]: 50 | Plant response rating, Purslane [6, 18]: 50 | Plant response rating, Purslane [6, 19]: 50 | Plant response rating, Signalgrass ([7]; 31 g ai/ha, scale 0 to 100): 20 | Plant response rating, Signalgrass [7, 17]: 25 | Plant response rating, Signalgrass [7, 18]: 35 | Plant response rating, Signalgrass [7, 19]: 20 | Plant response rating, Chickweed ([8]; 31 g ai/ha, scale 0 to 100): 15 | Plant response rating, Chickweed [8, 17]: 40 | Plant response rating, Chickweed [8, 18]: 60 | Plant response rating, Chickweed [8, 19]: 20 | Plant response rating, Crabgrass, Large ([9]; 31 g ai/ha, scale 0 to 100): 70 | Plant response rating, Crabgrass, Large [9, 17]: 75 | Plant response rating, Crabgrass, Large [9, 18]: 75 | Plant response rating, Crabgrass, Large [9, 19]: 75 | Plant response rating, Spanishneedles ([10]; 31 g ai/ha, scale 0 to 100): 65 | Plant response rating, Spanishneedles [10, 17]: 75 | Plant response rating, Spanishneedles [10, 18]: 75 | Plant response rating, Spanishneedles [10, 19]: 65 | Plant response rating, Surinam Grass ([11]; 31 g ai/ha, scale 0 to 100): 75 | Plant response rating, Surinam Grass [11, 17]: 80 | Plant response rating, Surinam Grass [11, 18]: 80 | Plant response rating, Surinam Grass [11, 19]: 75 | Plant response rating, Kochia ([12]; 31 g ai/ha, scale 0 to 100): 25 | Plant response rating, Kochia [12, 17]: 50 | Plant response rating, Kochia [12, 18]: 65 | Plant response rating, Kochia [12, 19]: 50 | Plant response rating, Russian Thistle ([13]; 31 g ai/ha, scale 0 to 100): 20 | Plant response rating, Russian Thistle [13, 17]: 60 | Plant response rating, Russian Thistle [13, 18]: 65 | Plant response rating, Russian Thistle [13, 19]: 40 | Plant response rating, Barnyardgrass ([14]; 31 g ai/ha, scale 0 to 100): 80 | Plant response rating, Barnyardgrass [14, 17]: 85 | Plant response rating, Barnyardgrass [14, 18]: 90 | Plant response rating, Barnyardgrass [14, 19]: 80 | Plant response rating, Itchgrass ([15]; 31 g ai/ha, scale 0 to 100): 60 | Plant response rating, Itchgrass [15, 17]: 75 | Plant response rating, Itchgrass [15, 18]: 75 | Plant response rating, Itchgrass [15, 19]: 70 | Plant response rating, Morningglory ([16]; 31 g ai/ha, scale 0 to 100): 65 | Plant response rating, Morningglory [16, 17]: 75 | Plant response rating, Morningglory [16, 18]: 75 | Plant response rating, Morningglory [16, 19]: 70
